Legend:
Escherichia coli [1] = experiment: Adjuvant activity assessed as potentiation of tetracycline-induced antibacterial activity against Escherichia coli BW25113 at 0.5 times MIC after 16 to 18 hrs by checkerboard assay (reference value: 2 ng/ml); format: functional
Escherichia coli [2] = experiment: Adjuvant activity assessed as potentiation of chloramphenicol-induced antibacterial activity against Escherichia coli BW25113 at 0.5 times MIC after 16 to 18 hrs by checkerboard assay (reference value: 8 ng/ml); format: functional
[3] = Cytotoxicity against HEK cells assessed as cell viability at 6.9 ug/ml after 48 hrs by CellTiter-Glo assay relative to control; format: toxicity, cell-based, HEK293; conditions: human, read-out: Activity
Escherichia coli [4] = experiment: Induction of membrane permeabilization in Escherichia coli BW25113 at MIC after 15 mins by propidium iodide staining-based fluorescence microplate reader method relative to 50% ethanol; format: functional
Klebsiella pneumoniae [5] = experiment: Antibacterial activity against Klebsiella pneumoniae after 16 to 18 hrs by micro-dilution method; format: functional
Escherichia coli [6] = experiment: Antibacterial activity against Escherichia coli BW25113 after 16 to 18 hrs by micro-dilution method; format: functional
Escherichia coli [7] = experiment: Adjuvant activity assessed as potentiation of rifampicin-induced antibacterial activity against Escherichia coli BW25113 at 0.25 times MIC after 16 to 18 hrs by checkerboard assay (reference value: 8 ng/ml); format: functional
Vibrio cholerae = experiment: Antibacterial activity against Vibrio cholerae after 16 to 18 hrs by micro-dilution method; format: functional
Shigella boydii = experiment: Antibacterial activity against Shigella boydii after 16 to 18 hrs by micro-dilution method; format: functional
Escherichia coli [8] = experiment: Adjuvant activity assessed as potentiation of tetracycline-induced antibacterial activity against Escherichia coli BW25113 at 0.25 times MIC after 16 to 18 hrs by checkerboard assay (reference value: 2 ng/ml); format: functional
Salmonella typhimurium [9] = experiment: Antibacterial activity against Salmonella typhimurium after 16 to 18 hrs by micro-dilution method; format: functional, Salmonella enterica subsp. enterica serovar Typhimurium; conditions: Salmonella enterica
Acinetobacter baumannii [10] = experiment: Antibacterial activity against Acinetobacter baumannii after 16 to 18 hrs by micro-dilution method; format: functional
Escherichia coli [11] = experiment: Adjuvant activity assessed as potentiation of ciprofloxacin-induced antibacterial activity against Escherichia coli BW25113 at 0.25 times MIC after 16 to 18 hrs by checkerboard assay (reference value: 13 ng/ml); format: functional
Edwardsiella tarda = experiment: Antibacterial activity against Edwardsiella tarda after 16 to 18 hrs by micro-dilution method; format: functional
[12] = Cytotoxicity against HEK cells assessed as cell viability at 3.5 ug/ml after 48 hrs by CellTiter-Glo assay relative to control; format: toxicity, cell-based, HEK293; conditions: human, read-out: Activity
Escherichia coli [13] = experiment: Antibacterial activity against tolC-deficient Escherichia coli BW25113 after 16 to 18 hrs by micro-dilution method; format: functional
Pseudomonas aeruginosa [14] = experiment: Antibacterial activity against Pseudomonas aeruginosa after 16 to 18 hrs by micro-dilution method; format: functional
Bacillus subtilis = experiment: Antibacterial activity against Bacillus subtilis 168 after 16 to 18 hrs by micro-dilution method; format: functional; conditions: subsp. subtilis str. 168
[15] = Cytotoxicity against HEK cells assessed as cell viability at 14 ug/ml after 48 hrs by CellTiter-Glo assay relative to control; format: toxicity, cell-based, HEK293; conditions: human, read-out: Activity
Escherichia coli [16] = experiment: Adjuvant activity assessed as potentiation of chloramphenicol-induced antibacterial activity against Escherichia coli BW25113 at 0.25 times MIC after 16 to 18 hrs by checkerboard assay (reference value: 8 ng/ml); format: functional
Staphylococcus aureus [17] = experiment: Antibacterial activity against Staphylococcus aureus after 16 to 18 hrs by micro-dilution method; format: functional
[18] = Cytotoxicity against HEK cells assessed as cell viability at 6.9 ug/ml after 24 hrs by CellTiter-Glo assay relative to control; format: toxicity, cell-based, HEK293; conditions: human, read-out: Activity
Escherichia coli [19] = experiment: Adjuvant activity assessed as potentiation of ciprofloxacin-induced antibacterial activity against Escherichia coli BW25113 at 0.5 times MIC after 16 to 18 hrs by checkerboard assay (reference value: 13 ng/ml); format: functional
Morganella morganii = experiment: Antibacterial activity against Morganella morganii after 16 to 18 hrs by micro-dilution method; format: functional
Klebsiella aerogenes = experiment: Antibacterial activity against Enterobacter aerogenes after 16 to 18 hrs by micro-dilution method; format: functional
[20] = Cytotoxicity against HEK cells assessed as cell viability at 3.5 ug/ml after 24 hrs by CellTiter-Glo assay relative to control; format: toxicity, cell-based, HEK293; conditions: human, read-out: Activity
[21] = Cytotoxicity against HEK cells assessed as cell viability at 14 ug/ml after 24 hrs by CellTiter-Glo assay relative to control; format: toxicity, cell-based, HEK293; conditions: human, read-out: Activity
Escherichia coli [22] = experiment: Adjuvant activity assessed as potentiation of rifampicin-induced antibacterial activity against Escherichia coli BW25113 at 0.5 times MIC after 16 to 18 hrs by checkerboard assay (reference value: 8 ng/ml); format: functional
Pseudomonas aeruginosa [23] = experiment: Adjuvant activity assessed as potentiation of rifampicin-induced antibacterial activity against Pseudomonas aeruginosa at 21 ug/ml after 16 to 18 hrs by checkerboard assay (reference value: 16 ug/ml); format: functional
Salmonella typhimurium [24] = experiment: Adjuvant activity assessed as potentiation of rifampicin-induced antibacterial activity against Salmonella typhimurium at 21 ug/ml after 16 to 18 hrs by checkerboard assay (reference value: 8 ug/ml); format: functional, Salmonella enterica subsp. enterica serovar Typhimurium; conditions: Salmonella enterica
[25] = Cytotoxicity against HEK cells assessed as cell viability at 10.5 ug/ml after 48 hrs by CellTiter-Glo assay relative to control; format: toxicity, cell-based, HEK293; conditions: human, read-out: Activity
Acinetobacter baumannii [26] = experiment: Adjuvant activity assessed as potentiation of rifampicin-induced antibacterial activity against Acinetobacter baumannii at 21 ug/ml after 16 to 18 hrs by checkerboard assay (reference value: 2 ug/ml); format: functional
[27] = Cytotoxicity against HEK cells assessed as cell viability at 10.5 ug/ml after 24 hrs by CellTiter-Glo assay relative to control; format: toxicity, cell-based, HEK293; conditions: human, read-out: Activity
Staphylococcus aureus [28] = experiment: Adjuvant activity assessed as potentiation of rifampicin-induced antibacterial activity against Staphylococcus aureus at 21 ug/ml after 16 to 18 hrs by checkerboard assay (reference value: 0.004 ug/ml); format: functional
Klebsiella pneumoniae [29] = experiment: Adjuvant activity assessed as potentiation of rifampicin-induced antibacterial activity against Klebsiella pneumoniae at 21 ug/ml after 16 to 18 hrs by checkerboard assay (reference value: 16 ug/ml); format: functional
[30] = Cytotoxicity against HEK cells assessed as cell viability at 5.3 ug/ml after 24 hrs by CellTiter-Glo assay relative to control; format: toxicity, cell-based, HEK293; conditions: human, read-out: Activity
[31] = Cytotoxicity against HEK cells assessed as cell viability at 21 ug/ml after 24 hrs by CellTiter-Glo assay relative to control; format: toxicity, cell-based, HEK293; conditions: human, read-out: Activity
[32] = Cytotoxicity against HEK cells assessed as cell viability at 21 ug/ml after 48 hrs by CellTiter-Glo assay relative to control; format: toxicity, cell-based, HEK293; conditions: human, read-out: Activity
[33] = Cytotoxicity against HEK cells assessed as cell viability at 5.3 ug/ml after 48 hrs by CellTiter-Glo assay relative to control; format: toxicity, cell-based, HEK293; conditions: human, read-out: Activity

Compound | MIC (Escherichia coli [1]) [ng/mL] | MIC (Escherichia coli [2]) [ng/mL] | Activity (Escherichia coli [4]) [%] | MIC (Klebsiella pneumoniae [5]) [µg/mL] | MIC (Escherichia coli [6]) [µg/mL] | MIC (Escherichia coli [7]) [ng/mL] | MIC (Vibrio cholerae) [µg/mL] | MIC (Shigella boydii) [µg/mL] | MIC (Escherichia coli [8]) [ng/mL] | MIC (Salmonella typhimurium [9]) [µg/mL] | MIC (Acinetobacter baumannii [10]) [µg/mL] | MIC (Escherichia coli [11]) [µg/mL] | MIC (Edwardsiella tarda) [µg/mL] | MIC (Escherichia coli [13]) [µg/mL] | MIC (Pseudomonas aeruginosa [14]) [µg/mL] | MIC (Bacillus subtilis) [µg/mL] | MIC (Escherichia coli [16]) [ng/mL] | MIC (Staphylococcus aureus [17]) [µg/mL] | MIC (Escherichia coli [19]) [ng/mL] | MIC (Morganella morganii) [µg/mL] | further results
CCCCCCCCCCCCOc1ccc2[nH]cc(CCN)c2c1.Cl | 0.25 | 0.5 | 10 | > 110 | 26 | 1 | 28 | 14 | 1 | 28 | 28 | 0.013 | > 110 | 6.9 | > 110 | 1.7 | 1 | 3.4 | 0.8 | > 110 | viability at 48 h, 6.9 ug/ml [3]: 2.6%; viability at 48 h, 3.5 ug/ml [12]: 13.4%; viability at 48 h, 14 ug/ml [15]: 0.2%; viability at 24 h, 6.9 ug/ml [18]: 10.4%; MIC (Klebsiella aerogenes): > 110 µg/mL; viability at 24 h, 3.5 ug/ml [20]: 26%; viability at 24 h, 14 ug/ml [21]: 1.5%; MIC (Escherichia coli [22]): 0.25 ng/mL
CCCCCCOc1ccc2[nH]cc(CCN)c2c1.Cl | 1 | 4 | 34 | 42 | 42 | 4 | 42 | 42 | 2 | 42 | 42 | 0.013 | 42 | 42 | > 83 | 42 | 4 | 42 | 13 | > 83 | MIC (Pseudomonas aeruginosa [23]): 16 µg/mL; MIC (Salmonella typhimurium [24]): 0.5 µg/mL; viability at 48 h, 10.5 ug/ml [25]: 0%; MIC (Acinetobacter baumannii [26]): 0.016 µg/mL; viability at 24 h, 10.5 ug/ml [27]: 0.1%; MIC (Staphylococcus aureus [28]): 4 ng/mL; MIC (Klebsiella pneumoniae [29]): 8 µg/mL; viability at 24 h, 5.3 ug/ml [30]: 0.4%; viability at 24 h, 21 ug/ml [31]: 0%; viability at 48 h, 21 ug/ml [32]: 0%; MIC (Klebsiella aerogenes): 42 µg/mL; viability at 48 h, 5.3 ug/ml [33]: 0.1%; MIC (Escherichia coli [22]): 1 ng/mL

— ChEMBL document CHEMBL3864146, “5-Alkyloxytryptamines are membrane-targeting, broad-spectrum antibiotics” (Bioorg Med Chem Lett, 2016)
